Reference: the OligoGym collection
HELM strings list units from the 5' end as sugar, base in round brackets, then linkage (d deoxyribose, r ribose, m 2'-O-methyl, p phosphodiester). Strings are as the collection lists them; they lack the last nucleoside at the 3' end of the tested compound. [moe] = 2'-O-(2-methoxyethyl) (MOE); [sp] = phosphorothioate linkage; [m5C] = 5-methylcytosine

These substances were tested against GFAP (assay: mouse, dose not given). Conditions: ASO.

3 h FOB score, 6 score 0-7:
RNA1{[moe](G)[sp].[moe](T)p.[moe](G)p.[moe](A)p.[moe](T)[sp].d(T)[sp].d(T)[sp].d(T)[sp].d([m5C])[sp].d([m5C])[sp].d([m5C])[sp].d([m5C])[sp].d(G)[sp].d(T)[sp].d([m5C])[sp].[moe](T)p.[moe](T)p.[moe](T)[sp].[moe](G)}$$$$ (last 3' nucleoside missing)
RNA1{[moe](G)[sp].[moe](T)p.[moe](G)p.[moe](A)p.[moe]([m5C])[sp].d(T)[sp].d(A)[sp].d(T)[sp].d([m5C])[sp].d(T)[sp].d(A)[sp].d(G)[sp].d(G)[sp].d(A)[sp].d(T)[sp].[moe](T)p.[moe](T)p.[moe](G)[sp].[moe](G)}$$$$ (last 3' nucleoside missing)

3 h FOB score, 2 score 0-7:
RNA1{[moe]([m5C])[sp].[moe](T)p.[moe](A)p.[moe](G)p.[moe](T)p.d([m5C])[sp].d(A)[sp].d(G)[sp].d([m5C])[sp].d([m5C])[sp].d(T)[sp].d(G)[sp].d(G)[sp].d(T)[sp].d(T)[sp].[moe](A)p.[moe](G)p.[moe]([m5C])[sp].[moe]([m5C])}$$$$ (last 3' nucleoside missing)
RNA1{[moe](A)[sp].[moe]([m5C])p.[moe](T)p.[moe](A)p.[moe](G)p.d(T)[sp].d([m5C])[sp].d(A)[sp].d(G)[sp].d([m5C])[sp].d([m5C])[sp].d(T)[sp].d(G)[sp].d(G)[sp].d(T)[sp].[moe](T)p.[moe](A)p.[moe](G)[sp].[moe]([m5C])}$$$$ (last 3' nucleoside missing)

3 h FOB score, 3 score 0-7:
RNA1{[moe](T)[sp].[moe](G)p.[moe](T)p.[moe](G)p.d(T)[sp].d(A)[sp].d(T)[sp].d(T)[sp].d(A)[sp].d(G)[sp].d(G)[sp].d(A)[sp].d(T)[sp].d([m5C])[sp].[moe]([m5C])p.[moe]([m5C])p.[moe](A)p.[moe](T)[sp].[moe]([m5C])}$$$$ (last 3' nucleoside missing)
RNA1{[moe](G)[sp].[moe]([m5C])p.[moe](T)p.[moe](T)p.[moe](T)p.[moe](T)p.d(G)[sp].d([m5C])[sp].d([m5C])[sp].d([m5C])[sp].d([m5C])[sp].d([m5C])[sp].d(T)[sp].d(G)[sp].d(T)[sp].d(A)[sp].[moe](G)p.[moe](T)[sp].[moe](G)}$$$$ (last 3' nucleoside missing)
RNA1{[moe](T)[sp].[moe]([m5C])p.[moe](T)p.[moe]([m5C])p.[moe](T)[sp].d([m5C])[sp].d([m5C])[sp].d(T)[sp].d(G)[sp].d(T)[sp].d(T)[sp].d(T)[sp].d([m5C])[sp].d(A)[sp].d(G)[sp].[moe]([m5C])p.[moe](A)p.[moe](T)[sp].[moe]([m5C])}$$$$ (last 3' nucleoside missing)
RNA1{[moe]([m5C])[sp].[moe](A)p.[moe](G)p.[moe]([m5C])p.[moe](A)[sp].d(T)[sp].d(T)[sp].d(T)[sp].d(G)[sp].d(T)[sp].d([m5C])[sp].d(T)[sp].d(T)[sp].[moe](T)p.[moe](A)p.[moe](T)[sp].[moe](T)}$$$$ (last 3' nucleoside missing)
RNA1{[moe](G)[sp].[moe](G)p.[moe](T)p.[moe](T)p.[moe](A)[sp].d(G)[sp].d([m5C])[sp].d([m5C])[sp].d(T)[sp].d(T)[sp].d(T)[sp].d([m5C])[sp].d(T)[sp].d(G)[sp].d(A)[sp].[moe](T)p.[moe](G)p.[moe]([m5C])[sp].[moe](T)}$$$$ (last 3' nucleoside missing)
RNA1{[moe](T)[sp].[moe]([m5C])p.[moe](A)p.[moe](G)p.[moe]([m5C])[sp].d([m5C])[sp].d(T)[sp].d(G)[sp].d(G)[sp].d(T)[sp].d(T)[sp].d(A)[sp].d(G)[sp].[moe]([m5C])p.[moe]([m5C])p.[moe](T)[sp].[moe](T)}$$$$ (last 3' nucleoside missing)
RNA1{[moe](T)[sp].[moe](T)p.[moe](G)p.[moe](A)p.[moe](G)p.d(A)[sp].d(T)[sp].d(A)[sp].d(T)[sp].d([m5C])[sp].d(T)[sp].d(T)[sp].d(G)[sp].d(T)[sp].d(G)[sp].[moe](A)p.[moe]([m5C])p.[moe]([m5C])[sp].[moe](T)}$$$$ (last 3' nucleoside missing)

3 h FOB score, 5 score 0-7:
RNA1{[moe]([m5C])[sp].[moe]([m5C])p.[moe]([m5C])p.[moe](T)p.[moe]([m5C])[sp].d(T)[sp].d(T)[sp].d([m5C])[sp].d([m5C])[sp].d(T)[sp].d([m5C])[sp].d([m5C])[sp].d(A)[sp].d(G)[sp].d([m5C])[sp].[moe]([m5C])p.[moe](G)p.[moe]([m5C])[sp].[moe](G)}$$$$ (last 3' nucleoside missing)

3 h FOB score, 1 score 0-7:
RNA1{[moe](T)[sp].[moe](G)p.[moe](G)p.[moe](T)p.[moe]([m5C])p.d([m5C])[sp].d(T)[sp].d(A)[sp].d(A)[sp].d(A)[sp].d(T)[sp].d(A)[sp].d(T)[sp].d(T)[sp].d([m5C])[sp].[moe](T)p.[moe](A)p.[moe](G)[sp].[moe](T)}$$$$ (last 3' nucleoside missing)
RNA1{[moe](A)[sp].[moe](G)p.[moe]([m5C])p.[moe](A)p.d(T)[sp].d(T)[sp].d(T)[sp].d(G)[sp].d(T)[sp].d([m5C])[sp].d(T)[sp].d(T)[sp].d(T)[sp].d(A)[sp].[moe](T)p.[moe](T)p.[moe](T)p.[moe](T)[sp].[moe](T)}$$$$ (last 3' nucleoside missing)
RNA1{[moe]([m5C])[sp].[moe](A)p.[moe](G)p.[moe]([m5C])p.[moe](A)p.[moe](T)p.d(T)[sp].d(T)[sp].d(G)[sp].d(T)[sp].d([m5C])[sp].d(T)[sp].d(T)[sp].d(T)[sp].d(A)[sp].d(T)[sp].[moe](T)p.[moe](T)[sp].[moe](T)}$$$$ (last 3' nucleoside missing)
RNA1{[moe]([m5C])[sp].[moe](A)p.[moe](G)p.[moe](T)p.d(A)[sp].d(T)[sp].d(T)[sp].d(A)[sp].d([m5C])[sp].d([m5C])[sp].d(T)[sp].d([m5C])[sp].d(T)[sp].d(A)[sp].[moe]([m5C])p.[moe](T)p.[moe](A)p.[moe](G)[sp].[moe](T)}$$$$ (last 3' nucleoside missing)
RNA1{[moe](G)[sp].[moe]([m5C])p.[moe](A)p.[moe](G)p.d(T)[sp].d(A)[sp].d(T)[sp].d(T)[sp].d(A)[sp].d([m5C])[sp].d([m5C])[sp].d(T)[sp].d([m5C])[sp].d(T)[sp].[moe](A)p.[moe]([m5C])p.[moe](T)p.[moe](A)[sp].[moe](G)}$$$$ (last 3' nucleoside missing)
RNA1{[moe](G)[sp].[moe](G)p.[moe]([m5C])p.[moe](T)p.[moe](T)[sp].d([m5C])[sp].d(A)[sp].d(T)[sp].d([m5C])[sp].d(T)[sp].d(G)[sp].d([m5C])[sp].d(T)[sp].d(T)[sp].d([m5C])[sp].[moe]([m5C])p.[moe](T)p.[moe](G)[sp].[moe](G)}$$$$ (last 3' nucleoside missing)

3 h FOB score, 0 score 0-7:
RNA1{[moe]([m5C])[sp].[moe](A)p.[moe]([m5C])p.[moe](G)p.[moe](T)p.d([m5C])[sp].d(A)[sp].d([m5C])[sp].d(A)[sp].d(T)[sp].d(T)[sp].d([m5C])[sp].d(A)[sp].d([m5C])[sp].d(T)[sp].[moe](A)p.[moe](A)p.[moe](T)[sp].[moe](A)}$$$$ (last 3' nucleoside missing)
RNA1{[moe]([m5C])[sp].[moe](G)p.[moe](T)p.[moe]([m5C])p.[moe](A)p.d([m5C])[sp].d(A)[sp].d(T)[sp].d(T)[sp].d([m5C])[sp].d(A)[sp].d([m5C])[sp].d(T)[sp].d(A)[sp].d(A)[sp].[moe](T)p.[moe](A)p.[moe](T)[sp].[moe](T)}$$$$ (last 3' nucleoside missing)
RNA1{[moe]([m5C])[sp].[moe](A)p.[moe](G)p.[moe](T)p.[moe](A)p.d(T)[sp].d(T)[sp].d(A)[sp].d([m5C])[sp].d([m5C])[sp].d(T)[sp].d([m5C])[sp].d(T)[sp].d(A)[sp].d([m5C])[sp].[moe](T)p.[moe](A)p.[moe](G)[sp].[moe](T)}$$$$ (last 3' nucleoside missing)
RNA1{[moe](T)[sp].[moe](T)p.[moe](T)p.[moe](G)p.[moe](T)p.[moe]([m5C])p.d(T)[sp].d(T)[sp].d(T)[sp].d(A)[sp].d(T)[sp].d(T)[sp].d(T)[sp].d(T)[sp].d(T)[sp].d([m5C])[sp].[moe]([m5C])p.[moe](T)[sp].[moe]([m5C])}$$$$ (last 3' nucleoside missing)
RNA1{[moe]([m5C])[sp].[moe](A)p.[moe](T)p.[moe](T)p.[moe](T)[sp].d(G)[sp].d(T)[sp].d([m5C])[sp].d(T)[sp].d(T)[sp].d(T)[sp].d(A)[sp].d(T)[sp].d(T)[sp].d(T)[sp].[moe](T)p.[moe](T)p.[moe]([m5C])[sp].[moe]([m5C])}$$$$ (last 3' nucleoside missing)

3 h FOB score, 4 score 0-7:
RNA1{[moe](A)[sp].[moe](G)p.[moe]([m5C])p.[moe]([m5C])p.[moe](T)[sp].d(G)[sp].d(G)[sp].d(T)[sp].d(T)[sp].d(A)[sp].d(G)[sp].d([m5C])[sp].d([m5C])[sp].[moe](T)p.[moe](T)p.[moe](T)[sp].[moe]([m5C])}$$$$ (last 3' nucleoside missing)
RNA1{[moe](T)[sp].[moe](G)p.[moe]([m5C])p.[moe]([m5C])p.[moe]([m5C])[sp].d([m5C])[sp].d([m5C])[sp].d([m5C])[sp].d(G)[sp].d([m5C])[sp].d([m5C])[sp].d([m5C])[sp].d(T)[sp].d([m5C])[sp].d([m5C])[sp].[moe](T)p.[moe]([m5C])p.[moe]([m5C])[sp].[moe]([m5C])}$$$$ (last 3' nucleoside missing)
RNA1{[moe](G)[sp].[moe]([m5C])p.[moe](A)p.[moe](G)p.[moe]([m5C])[sp].d(A)[sp].d(T)[sp].d(T)[sp].d(T)[sp].d(G)[sp].d(T)[sp].d([m5C])[sp].d(T)[sp].d(T)[sp].d(T)[sp].[moe](A)p.[moe](T)p.[moe](T)[sp].[moe](T)}$$$$ (last 3' nucleoside missing)
